Assay results from the CheMixHub ionic liquid set.

Assay: xn = mol fraction of the nth substance listed
Conditions: for electrical conductivity: frequency 3 MHz

COCCCC[n+]1ccn(C)c1.C[C@@H](O)[C@H](N)C(=O)[O-] + CS(C)=O
viscosity [mPa·s], 100 kPa
Conditions	x1 = 0.0999	x1 = 0.2013	x1 = 0.3006	x1 = 0.3966	x1 = 0.5	x1 = 0.6011	x1 = 0.7007	x1 = 0.8001	x1 = 0.8946	x1 = 1
288.15 K	14.24	22.21	49.3	102.2	186.6	281	390	560	778	1030
293.15 K	12.05	18.12	37.45	74.9	132.1	192	264	371	503	647
298.15 K	9.53	15.09	30.16	56.54	94.4	135.2	181.5	254	340	424
303.15 K	7.91	12.7	24.02	43.12	69.4	97.9	131.7	179.9	234	290
308.15 K	6.67	10.74	19.82	33.94	52.97	74.4	98.5	133	168.7	205
313.15 K	5.86	9.49	16.58	27.18	39.95	53.5	69.5	90.7	108.9	132.9
318.15 K	5.2	8.31	13.95	21.6	31.33	41.63	53.64	69.5	80.3	98.5

Cn1cc[n+](CCCN)c1.F[B-](F)(F)F + CS(C)=O
101 kPa
Conditions	electrical conductivity [S/m]	viscosity [mPa·s]
293.15 K, x1 = 0.2997	0.537	42.06
293.15 K, x1 = 0.3997	0.334	58.56
293.15 K, x1 = 0.5999	0.151	96.13
293.15 K, x1 = 0.8998	0.032	161.7
298.15 K, x1 = 0.1003	1.08	10.17
298.15 K, x1 = 1	0.026	149.6
303.15 K, x1 = 0.2997	0.701	25.7
303.15 K, x1 = 0.7001	0.151	74.98
303.15 K, x1 = 0.8109	0.096	91.64
303.15 K, x1 = 0.8998	0.062	105.4
308.15 K, x1 = 0.8109	0.12	75.58
308.15 K, x1 = 1	0.055	100.2
313.15 K, x1 = 0.1003	1.544	5.27
313.15 K, x1 = 0.5999	0.323	40.83
313.15 K, x1 = 0.8109	0.15	62.45
318.15 K, x1 = 0.3997	0.71	19.73
318.15 K, x1 = 0.7001	0.264	42.06
323.15 K, x1 = 0.4998	0.576	22.1
323.15 K, x1 = 1	0.124	58.45
328.15 K, x1 = 0.1003	2.107	3.179
328.15 K, x1 = 0.2	1.611	6.358
328.15 K, x1 = 0.3997	0.922	14.21
333.15 K, x1 = 0.2997	1.4	8.621
333.15 K, x1 = 0.3997	–	12.05
338.15 K, x1 = 0.3997	1.17	10.36
338.15 K, x1 = 0.8109	0.381	26.89
338.15 K, x1 = 1	0.253	36.58
343.15 K, x1 = 0.1003	2.77	2.166
343.15 K, x1 = 0.5999	0.772	15.34
353.15 K, x1 = 0.3997	1.614	7.134
